Source: patent publication US20100048605A1, “SYNERGISTIC EFFECTS OF COMBINATIONS OF N[…] OPIOIDS FOR THE TREATMENT OF PAIN” (University of Kentucky Research Foundation, priority 2006, published 2010)

Experiments:
[1] = following peripheral administration of nicotine; cited from earlier work
[2] = system: rodent model of nociceptive pain (tail-flick test); assay: Tail-flick test after intraperitoneal (IP) administration; type: in vivo, Sprague Dawley male rats; details: rat
Method: Sprague Dawley (about 90 days old, 350 g; Harlem, IN) male rats were used. S(−)-nornicotine fumarate (2.57 mg/kg), R(+)-nornicotine fumarate (2.57 mg/kg) and morphine sulfate (3 mg/kg) were dissolved in saline and injected intraperitonealy (IP, 1 ml/kg). Each rat received three treatments: either S(−)-nornicotine alone, morphine alone and S(−)-nornicotine followed by morphine or R(+)-nornicotine alone, morphine alone and R(+)-nornicotine followed by morphine. Injections were made in randomized fashion at 48 hour intervals. The responses to acute thermal stimuli were determined using the tail-flick test [D'Amour F. E., Smith D. L. “A method for determining loss of pain sensation” J Pharmacol Exp Ther (1941), 72:74-79]. Tail-flick latency (TFL) was measured by recording the time from the onset of the heat stimulus to the tail to withdrawal of the tail from the heat source, using a standard tail-flick apparatus (IITC, Life Science). The sensitivity of the instrument was adjusted to provide a baseline about 2 seconds. Cut-off time of 10 seconds was used to avoid tail damage. TFL were determined prior to (twice, about 15 minutes apart) and at […] after administration. Data were normalized for pre-injection baseline. Areas under the curve (AUC0-180min) were calculated for normalized data by trapezoidal rule. […]

[3] = system: rodent model of nociceptive pain (tail-flick test); assay: Tail-flick test after intrathecal (IT) administration; type: in vivo, Sprague Dawley male rats; details: rat
Method: Chronic catheterization of the spinal subarachnoid space was performed in Sprague Dawley male rats (about 90 days old, 350 g; Harlem, IN) according to minor modification of the method described by [Yaksh T and Rudy T. “Chronic catheterization of the spinal subarachnoid space” Physiol Behav (1976) 17:1031-1036]. Briefly, a 21 cm long P-10 polyethylene tubing (volume 10 mcl) which extended 8.5 cm beyond an incision in the atlanto-occipital membrane was inserted and secured to the scull with acrylic cement. The catheter rested in the vicinity of T-12 at the rostral face of the lumbar cord enlargement. The study was initiated 7 days after IT catheterization.
S(−)-nornicotine perchlorate (10 mcg), R(+)-nornicotine perchlorate (10 mcg) and morphine sulfate (0.5 mcg) were dissolved in saline and administered by the intrathecal (IT) route (10 mcl). Groups of rats was treated with S(−)-nornicotine alone and in combination with morphine, […] alone and in combination with morphine, morphine alone, and saline (10 mcl). The responses to acute thermal stimuli were determined using the tail-flick test (a baseline equal to about 2-3 seconds, cut-off time of 10 seconds). […] Data are presented as time courses of the TFL (normalized for baseline) and areas under the curve (AUC0-180min). All data are mean±SEM (n=4-6 rats). Doses refer to salts.

[4] = compared with nicotine; cited from earlier work
[5] = following repeated nicotine dosing; cited from earlier work
[6] = humans; cited from earlier work

Row | SMILES | residence in the rat's brain [1] [min] | analgesia of S(−)-nornicotine alone (tail-flick latency, AUC0-180min) ([2]; S(−)-nornicotine fumarate 2.57 mg/kg alone) | effect on the analgesic effect of morphine (tail-flick latency, AUC0-180min) ([2]; S(−)-nornicotine fumarate 2.57 mg/kg followed by morphine sulfate 3 mg/kg) | analgesia of S(−)-nornicotine alone (tail-flick latency, AUC0-180min) ([3]; S(−)-nornicotine perchlorate 10 mcg alone) | effect on the analgesic effect of morphine (tail-flick latency, AUC0-180min) ([3]; S(−)-nornicotine perchlorate 10 mcg with morphine sulfate 0.5 mcg) | bioavailability (in words) [4] | residence in the rat's brain relative to nicotine [1] | accumulation in the brain compared to nicotine [5] | plasma half-life [6] [h]
1 | CN1CCCC1c1cccnc1 (stereo not shown) [nicotine, reference compound] | 52 |  |  |  |  |  |  |  | 
2 | c1cncc([C@@H]2CCCN2)c1 [S(−)-nornicotine] |  | did not produce analgesia | significantly enhanced | did not produce analgesia | significantly enhanced |  |  |  | 
3 | c1cncc([C@@H]2CCCN2)c1 [nornicotine] | 166 |  |  |  |  | superior | about 3 times | about 4 fold | 8
